Source: article PMC2063170, “A phase I clinical and pharmacokinetic study of the new topoisomerase inhibitor GI147211 given as a 72-h continuous infusion” (British Journal of Cancer, 1998)

Test: Phase I pharmacokinetics, 72-h continuous infusion, whole-blood and urine HPLC
Text: Brrtish Joumal of Cancer(1998) 78(10). 1329-1336 @ 1998 Cancer Research Campaign A phase I clinical and pharmacokinetic study of the new topoisomerase inhibitor G1147211 given as a 72-h continuous infusion L Paz-Aresl*, R Kunkal 2, D DeMarial-3, J Cassidy' 4, M Alden3, P Beranek2, S Kaye', D Littlefield2, D Reilly3, S Depee2, P Wissel2, C Twelves' and P O'Dwyer3 CRC Department of Medical Oncology. University of Glasgow. Westem Infirmary Hospital. Glasgow Gll 6NT. UK; 2Glaxo Wellcome Research. Five Moore Drive. Research Triangle Park. NC 27709. USA; 'Fox Chase Cancer Center. 7701 Burholme Avenue. Philadelphia, PA 19111. USA: 4Thomas Jefferson University. Kimmel Cancer Institute. Bluemle Life Sciences Building. 233 S. 10th Street. Suite 502. Philadelphia. PA 19107. […] This study was designed to determine the maximum tolerated dose of Gl147211 as a 72-h infusion and to describe its pharmacokinetics and pharmacodynamics on this schedule. In a single-arm, rising-dose study in patients with advanced cancer, eight cohorts of three or more patients received 72-h infusions of G1147211 at doses ranging from 0.25 to 2.5 mg m-2 day-'. […] Whole-blood G1147211 lactone, total blood and total concentrations were measured during and over the 12 h following the infusion. […] Extensive phase 11 evaluation of this compound and further phase I trials evaluating more prolonged infusions are ongoing. Keywords: G1147211: GG211: camptothecin analogues: topoisomerase I inhibitor; phase I trial; pharmacokinetics: pharmacodynamics: continuous infusion GI 147211 (7-4 methyl piperazinomethilene)- 10.1 1 -ethylenedioxy - 20-(S camptothecin: Figure 1) is a totally synthetic analogue of camptothecin. a natural product isolated from Camptotheca acuminata (WAall et al. 1966: Emerson et al. 1995). […] The nuclear enzyvme DNA topoisomerase I. x hich relaxes DNA supercoils arising during, replication and gene tran- scription. has been identified as the specific targret of camptothecin (Hsianer and Liu. 1988: Wall and Wani. 1995).

SMILES: CC[C@@]1(O)C(=O)OCc2c1cc1n(c2=O)Cc2c-1nc1cc3c(cc1c2CN1CCN(C)CC1)OCCO3 [GI147211, 7-4 methyl piperazinomethilene)-10.1 1-ethylenedioxy - 20-(S camptothecin]
- Css (at doses of 1.2 mg m-2 day-1 and above): > 1 ng/mL
- Clearance, average (human, in vivo): 1074 ml min-1 m-2
- Mean clearance values, range over the dose range (human, in vivo): 776-1554 ml min-1 m-2
- Mean terminal elimination half-life (human, in vivo): 7.5 h
- Renal clearance, average (human, in vivo): 164 ml min-
- Clearance, mean (human, in vivo, 0.25 mg): 776 ml min-1 m-2
- Clearance, mean (human, in vivo, 0.5 mg): 864 ml min-1 m-2
- Clearance, mean (human, in vivo, 1 mg): 826 ml min-1 m-2
- Half-life, mean (human, in vivo, 1 mg): 7.9 h
- Clearance, mean (human, in vivo, 1.2 mg): 1279 ml min-1 m-2
- Half-life, mean (human, in vivo, 1.2 mg): 6.1 h
- Clearance, mean (human, in vivo, 1.5 mg): 1046 ml min-1 m-2
- Half-life, mean (human, in vivo, 1.5 mg): 7.4 h
- Clearance, mean (human, in vivo, 2 mg): 1290 ml min-1 m-2
- Half-life, mean (human, in vivo, 2 mg): 7.2 h
- Clearance, mean (human, in vivo, 2.5 mg): 1554 ml min-1 m-2
- Half-life, mean (human, in vivo, 2.5 mg): 8.5 h
- Total drug recovered unaltered in urine (in vivo): ~11%
- Variation in Css with dose level (in vivo): two- to threefold
- Clearance, mean (lactone, 1.75 mg m-2 day-1, n=3): 1138 ml min-1 m-2
- Css, mean (lactone, whole blood, 0.25 mg m-2 day-1, n=6): 0.25 ng/mL
- Css, mean (lactone, whole blood, 1.0 mg m-2 day-1, n=5): 0.86 ng/mL
- Css, mean (lactone, whole blood, 1.2 mg m-2 day-1, n=3): 0.74 ng/mL
- Css, mean (lactone, whole blood, 1.5 mg m-2 day-1, n=10): 1.09 ng/mL
- Css, mean (lactone, whole blood, 1.75 mg m-2 day-1, n=3): 1.10 ng/mL
- Css, mean (lactone, whole blood, 2.0 mg m-2 day-1, n=11): 1.09 ng/mL
- Css, mean (lactone, whole blood, 2.5 mg m-2 day-1, n=2): 1.21 ng/mL
- Mean fraction of drug excreted unchanged in the urine (fe) (total drug in urine, 15 subjects): 0.114
- Total blood concentrations (lactone plus carboxylate) relative to lactone concentrations (whole blood): approximately four
